This passage reports IC50 results from the Kinase Knowledgebase extract (Sharma et al. 2016).

SMILES strings stand for the structures.

The target in this assay is EGFR (human) (UniProt P00533). Conditions: a431.
Sequence of EGFR (human) (P00533 whole entry, looked up): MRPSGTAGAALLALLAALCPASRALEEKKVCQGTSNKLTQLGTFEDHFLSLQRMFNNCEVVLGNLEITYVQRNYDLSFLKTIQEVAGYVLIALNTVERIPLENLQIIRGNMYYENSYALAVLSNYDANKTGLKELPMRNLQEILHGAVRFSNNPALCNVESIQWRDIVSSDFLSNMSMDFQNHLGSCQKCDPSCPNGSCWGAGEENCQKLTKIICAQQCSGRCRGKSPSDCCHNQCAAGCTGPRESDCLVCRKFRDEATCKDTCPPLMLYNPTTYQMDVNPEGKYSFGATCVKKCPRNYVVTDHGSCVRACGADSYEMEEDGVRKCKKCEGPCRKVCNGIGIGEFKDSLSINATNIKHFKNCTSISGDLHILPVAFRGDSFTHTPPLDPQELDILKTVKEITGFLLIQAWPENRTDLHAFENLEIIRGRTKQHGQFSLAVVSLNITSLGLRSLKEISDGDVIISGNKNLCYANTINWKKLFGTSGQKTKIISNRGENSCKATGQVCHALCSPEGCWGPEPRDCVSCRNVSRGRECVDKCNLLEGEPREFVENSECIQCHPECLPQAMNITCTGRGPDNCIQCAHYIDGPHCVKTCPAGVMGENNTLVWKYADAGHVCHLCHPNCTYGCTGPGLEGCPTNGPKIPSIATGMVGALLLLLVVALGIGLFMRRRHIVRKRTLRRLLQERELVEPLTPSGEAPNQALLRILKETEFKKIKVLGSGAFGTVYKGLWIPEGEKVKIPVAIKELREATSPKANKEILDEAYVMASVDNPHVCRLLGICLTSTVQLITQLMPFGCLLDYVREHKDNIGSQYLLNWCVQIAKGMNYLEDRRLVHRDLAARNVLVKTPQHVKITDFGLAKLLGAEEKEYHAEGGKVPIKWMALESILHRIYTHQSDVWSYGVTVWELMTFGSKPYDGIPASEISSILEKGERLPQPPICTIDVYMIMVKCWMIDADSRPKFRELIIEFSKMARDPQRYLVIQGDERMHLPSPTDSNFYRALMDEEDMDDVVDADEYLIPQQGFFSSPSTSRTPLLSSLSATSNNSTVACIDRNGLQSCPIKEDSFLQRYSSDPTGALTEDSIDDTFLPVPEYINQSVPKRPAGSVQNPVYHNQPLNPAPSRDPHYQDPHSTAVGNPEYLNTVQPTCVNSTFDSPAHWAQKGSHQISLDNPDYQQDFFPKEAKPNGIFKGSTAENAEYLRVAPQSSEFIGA
`Cc1nc2cc3nc(-c4cc[cH-]c4)cnc3cc2n1C.[Fe+2].c1cc[cH-]c1` had an IC50 above 30 µM.

As for `Cc1cc2ncc(-c3cccs3)nc2cc1C`, the IC50 is above 30 µM.

Regarding `Cc1cc2ncc(-c3cc[cH-]c3)nc2cc1C.[Fe+2].c1cc[cH-]c1`, the IC50 is above 30 µM.

`Cc1nc2cc3ncc(-c4ccccc4)nc3cc2n1C` showed an IC50 above 30 µM.

Take `COc1cc2ncc(-c3ccccc3)nc2cc1OC`: the IC50 is above 100 µM.

Turning to `Cc1nc2cc3nc(-c4cccs4)cnc3cc2n1C`, the IC50 is above 30 µM.

Consider `c1ccc(-c2cnc3cc4ccccc4cc3n2)cc1`, for which the IC50 was above 100 µM.

`Cc1cc2ncc(-c3ccccc3)nc2cc1C` yielded an IC50 above 100 µM.

As for `Cc1nc2cc3ncc(-c4cccs4)nc3cc2n1C`, the half-maximal inhibitory concentration (IC50) is above 30 µM.

`Cc1nc2cc3nc(-c4ccccc4)cnc3cc2n1C` came in with an IC50 above 30 µM.
